According to article PMC3692398 (Biochemical pharmacology, 2013):

Experiments:
human DA D1 receptor = human DA D1 receptor (Homo sapiens, UniProt P21728); assay: [3H]SCH23390 binding, LhD1 cells; details: test drugs up to the maximal concentration tested (10 µM)
h5-HT2C receptor [1] = target: T1, h5-HT2C receptor (Homo sapiens, UniProt P28335); assay: Inhibition of 5-HT-stimulated IP-1 formation; assay type: cell-based; details: 100 nM 5-HT; normalized to maximal inhibition by SB242084 (1 µM)
T1 sequence (P28335 33-458): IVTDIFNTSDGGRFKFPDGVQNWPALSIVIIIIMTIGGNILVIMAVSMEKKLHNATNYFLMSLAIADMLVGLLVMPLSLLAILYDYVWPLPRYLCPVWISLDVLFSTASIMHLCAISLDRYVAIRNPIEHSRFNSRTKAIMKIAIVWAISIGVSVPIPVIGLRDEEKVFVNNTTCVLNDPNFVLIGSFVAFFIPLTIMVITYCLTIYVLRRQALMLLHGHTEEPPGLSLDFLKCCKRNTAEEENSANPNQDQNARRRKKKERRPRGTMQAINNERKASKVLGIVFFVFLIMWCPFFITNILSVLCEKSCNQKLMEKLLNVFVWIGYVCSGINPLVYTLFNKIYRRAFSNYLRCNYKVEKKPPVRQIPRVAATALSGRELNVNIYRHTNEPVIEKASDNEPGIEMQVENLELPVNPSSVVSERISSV

hNET [2] = target: T2, hNET (Homo sapiens, UniProt P23975); assay: cell-based; assay type: cell-based
hNET [3] = target: T2, hNET; assay: Superfusion release of preloaded [3H]NE from HEK-hNET cells; assay type: cell-based
hDAT [4] = target: T3, hDAT (Homo sapiens, UniProt Q01959); assay: Inhibition of [125I]RTI-55 binding, HEK-hDAT membranes; details: read-out: Inhibition of [125I]RTI-55 binding Ki ± sem, hDAT; HEK-hDAT membranes
h5-HT2A receptor [5] = target: T4, h5-HT2A receptor (Homo sapiens, UniProt P28223); assay: [125I]DOI binding, HEK-h5-HT2A; details: read-out: Inhibition of radioligand binding Ki ± sem, h5-HT2A [125I]DOI
hSigma1 receptor = hSigma1 receptor (Homo sapiens, UniProt Q99720); assay: [3H]; assay type: binding; details: read-out: Inhibition of [3H]pentazocine binding Ki ± sem, hSigma1
h5-HT2C receptor [6] = target: T1, h5-HT2C receptor; assay: biochemical; assay type: binding; details: read-out: Inhibition of radioligand binding Ki ± sem, h5-HT2C [125I]DOI
h5-HT1A receptor [7] = target: T5, h5-HT1A receptor (Homo sapiens, UniProt P08908); assay: [3H]8-OH-DPAT binding, HEK-h5-HT1A; details: read-out: Inhibition of radioligand binding Ki ± sem, h5-HT1A [3H]8OH-DPAT
T5 sequence (P08908 1-422): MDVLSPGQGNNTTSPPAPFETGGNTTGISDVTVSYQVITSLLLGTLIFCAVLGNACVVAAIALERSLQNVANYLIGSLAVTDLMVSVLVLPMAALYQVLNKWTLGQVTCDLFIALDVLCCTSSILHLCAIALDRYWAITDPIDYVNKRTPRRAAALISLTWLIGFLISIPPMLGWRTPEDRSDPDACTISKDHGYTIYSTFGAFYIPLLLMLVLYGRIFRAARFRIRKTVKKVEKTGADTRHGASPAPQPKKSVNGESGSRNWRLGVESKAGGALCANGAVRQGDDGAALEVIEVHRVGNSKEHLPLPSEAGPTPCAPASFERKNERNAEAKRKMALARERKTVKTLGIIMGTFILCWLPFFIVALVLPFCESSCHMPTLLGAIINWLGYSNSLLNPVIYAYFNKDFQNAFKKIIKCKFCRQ

hSERT [8] = target: T6, hSERT (Homo sapiens, UniProt P31645); assay: Inhibition of [3H]5-HT uptake, intact HEK-hSERT cells; assay type: cell-based
hVMAT2 [9] = target: T7, hVMAT2 (Homo sapiens, UniProt Q05940); assay: Superfusion release of preloaded [3H]NE from HEK-hVMAT2 cells; assay type: cell-based; details: for Release of [3H]NE % maximum release ± sem or range, hVMAT2: relative to maximal AUC induced by METH (100 µM or 1 mM)
hVMAT2 [10] = target: T7, hVMAT2; assay: Inhibition of [3H]DHTB binding, HEK-hVMAT2 membranes; details: read-out: Inhibition of [3H]DHTB binding Ki ± sem, hVMAT2
h5-HT1A receptor [11] = target: T5, h5-HT1A receptor; assay: Stimulation of [35S]GTPγS binding, HEK-h5-HT1A membranes; assay type: biochemical
hVMAT2 [12] = target: T7, hVMAT2; assay: Inhibition of [3H]5-HT uptake, HEK-hVMAT2 membrane preparation; assay type: biochemical; details: read-out: Inhibition of [3H]5-HT uptake IC50 ± sem, hVMAT2; 40 nM [3H]5-HT, 2 mM MgATP
h5-HT2A receptor [13] = target: T4, h5-HT2A receptor; assay: Inhibition of 5-HT-stimulated IP-1 formation; assay type: cell-based; details: 100 nM 5-HT
hNET [14] = target: T2, hNET; assay: biochemical; assay type: binding; details: read-out: Inhibition of [125I]RTI-55 binding Ki ± sem, hNET
hDAT [15] = target: T3, hDAT; assay: Inhibition of [3H]DA uptake, intact HEK-hDAT cells; assay type: cell-based
hSERT [16] = target: T6, hSERT; assay: Superfusion release of preloaded [3H]5-HT from HEK-hSERT cells; assay type: cell-based
hDAT [17] = target: T3, hDAT; assay: Superfusion release of preloaded [3H]DA from HEK-hDAT cells; assay type: cell-based
[18] = concentrations ranging from 1 nM to 100 µM

T7 sequence (Q05940 whole entry, the tested form may be a part): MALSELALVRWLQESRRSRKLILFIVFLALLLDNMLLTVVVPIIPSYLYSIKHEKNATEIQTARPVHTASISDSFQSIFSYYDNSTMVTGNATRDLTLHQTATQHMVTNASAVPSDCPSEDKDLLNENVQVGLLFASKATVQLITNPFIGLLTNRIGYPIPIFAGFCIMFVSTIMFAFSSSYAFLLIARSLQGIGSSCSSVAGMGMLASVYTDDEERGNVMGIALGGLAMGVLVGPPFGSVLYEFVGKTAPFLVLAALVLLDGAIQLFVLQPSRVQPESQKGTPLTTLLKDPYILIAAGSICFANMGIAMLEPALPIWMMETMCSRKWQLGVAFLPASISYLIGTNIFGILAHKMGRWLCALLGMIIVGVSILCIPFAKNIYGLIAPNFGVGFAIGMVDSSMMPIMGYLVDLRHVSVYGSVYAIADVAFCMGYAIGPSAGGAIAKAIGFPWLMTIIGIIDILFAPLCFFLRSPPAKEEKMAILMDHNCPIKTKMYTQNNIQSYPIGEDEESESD
T6 sequence (P31645 whole entry, the tested form may be a part): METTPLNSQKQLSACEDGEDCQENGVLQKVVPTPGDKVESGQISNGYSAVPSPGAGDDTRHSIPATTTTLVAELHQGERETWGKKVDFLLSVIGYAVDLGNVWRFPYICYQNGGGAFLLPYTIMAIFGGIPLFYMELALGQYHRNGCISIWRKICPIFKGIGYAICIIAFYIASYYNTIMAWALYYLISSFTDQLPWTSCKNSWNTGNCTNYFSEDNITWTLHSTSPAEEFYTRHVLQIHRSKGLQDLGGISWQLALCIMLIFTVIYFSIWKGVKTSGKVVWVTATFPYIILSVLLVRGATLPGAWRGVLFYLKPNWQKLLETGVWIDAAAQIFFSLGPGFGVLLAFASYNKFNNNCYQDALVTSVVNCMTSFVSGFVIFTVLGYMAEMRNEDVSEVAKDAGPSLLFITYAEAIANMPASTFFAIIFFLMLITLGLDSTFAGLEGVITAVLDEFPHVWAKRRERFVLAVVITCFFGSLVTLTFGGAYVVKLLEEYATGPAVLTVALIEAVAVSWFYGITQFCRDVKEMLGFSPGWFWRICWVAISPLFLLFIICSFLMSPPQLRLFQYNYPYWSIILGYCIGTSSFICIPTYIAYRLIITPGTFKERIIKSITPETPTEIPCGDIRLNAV
T2 sequence (P23975 whole entry, the tested form may be a part): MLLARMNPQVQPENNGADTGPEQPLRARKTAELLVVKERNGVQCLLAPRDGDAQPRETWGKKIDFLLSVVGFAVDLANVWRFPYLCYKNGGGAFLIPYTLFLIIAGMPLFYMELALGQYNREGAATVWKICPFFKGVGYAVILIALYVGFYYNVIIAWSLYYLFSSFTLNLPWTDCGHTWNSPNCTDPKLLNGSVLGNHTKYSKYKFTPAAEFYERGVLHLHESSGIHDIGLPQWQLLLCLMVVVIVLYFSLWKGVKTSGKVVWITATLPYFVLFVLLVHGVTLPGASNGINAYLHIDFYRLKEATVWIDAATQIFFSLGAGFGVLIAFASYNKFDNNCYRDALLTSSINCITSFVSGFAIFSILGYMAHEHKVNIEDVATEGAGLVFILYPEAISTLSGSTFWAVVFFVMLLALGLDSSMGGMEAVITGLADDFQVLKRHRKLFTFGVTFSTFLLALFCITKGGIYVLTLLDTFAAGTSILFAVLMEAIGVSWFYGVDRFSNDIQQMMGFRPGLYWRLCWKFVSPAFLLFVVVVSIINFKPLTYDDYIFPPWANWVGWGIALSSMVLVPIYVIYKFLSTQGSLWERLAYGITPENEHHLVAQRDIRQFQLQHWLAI
T3 sequence (Q01959 whole entry): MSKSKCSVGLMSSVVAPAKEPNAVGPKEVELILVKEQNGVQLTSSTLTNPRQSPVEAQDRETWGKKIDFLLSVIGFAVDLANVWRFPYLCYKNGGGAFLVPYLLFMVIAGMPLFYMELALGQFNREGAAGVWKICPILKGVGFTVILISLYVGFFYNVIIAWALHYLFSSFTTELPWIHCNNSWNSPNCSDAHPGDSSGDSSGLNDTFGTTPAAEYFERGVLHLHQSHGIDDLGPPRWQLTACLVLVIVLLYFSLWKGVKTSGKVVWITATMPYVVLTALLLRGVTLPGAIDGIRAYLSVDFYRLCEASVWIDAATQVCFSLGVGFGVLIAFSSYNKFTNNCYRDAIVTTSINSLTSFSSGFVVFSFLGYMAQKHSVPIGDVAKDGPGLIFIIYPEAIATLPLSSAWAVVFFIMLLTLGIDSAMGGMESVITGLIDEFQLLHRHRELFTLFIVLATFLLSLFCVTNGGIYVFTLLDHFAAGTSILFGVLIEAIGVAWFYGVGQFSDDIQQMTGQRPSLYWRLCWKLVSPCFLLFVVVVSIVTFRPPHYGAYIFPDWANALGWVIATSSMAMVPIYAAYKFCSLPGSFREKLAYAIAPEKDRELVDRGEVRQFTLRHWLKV
T4 sequence (P28223 whole entry): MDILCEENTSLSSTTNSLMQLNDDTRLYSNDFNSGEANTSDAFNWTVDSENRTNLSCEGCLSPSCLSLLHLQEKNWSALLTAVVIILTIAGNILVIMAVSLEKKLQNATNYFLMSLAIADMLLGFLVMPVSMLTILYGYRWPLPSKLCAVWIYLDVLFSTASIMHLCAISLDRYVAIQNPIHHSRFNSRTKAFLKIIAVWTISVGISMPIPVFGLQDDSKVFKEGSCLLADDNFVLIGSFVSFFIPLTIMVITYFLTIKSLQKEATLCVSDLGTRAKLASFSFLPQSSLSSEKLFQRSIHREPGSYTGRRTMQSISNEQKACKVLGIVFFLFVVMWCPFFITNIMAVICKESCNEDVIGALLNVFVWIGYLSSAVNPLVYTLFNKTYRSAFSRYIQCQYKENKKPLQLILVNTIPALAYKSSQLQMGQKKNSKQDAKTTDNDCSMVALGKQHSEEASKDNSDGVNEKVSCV
Sequence of hSigma1 receptor (Q99720 whole entry): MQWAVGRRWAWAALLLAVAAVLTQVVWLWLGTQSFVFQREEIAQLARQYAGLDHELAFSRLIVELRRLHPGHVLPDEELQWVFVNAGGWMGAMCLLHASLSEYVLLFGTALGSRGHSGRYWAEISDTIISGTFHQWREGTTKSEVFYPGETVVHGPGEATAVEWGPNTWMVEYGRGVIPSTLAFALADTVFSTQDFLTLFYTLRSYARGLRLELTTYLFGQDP
Sequence of human DA D1 receptor (P21728 whole entry): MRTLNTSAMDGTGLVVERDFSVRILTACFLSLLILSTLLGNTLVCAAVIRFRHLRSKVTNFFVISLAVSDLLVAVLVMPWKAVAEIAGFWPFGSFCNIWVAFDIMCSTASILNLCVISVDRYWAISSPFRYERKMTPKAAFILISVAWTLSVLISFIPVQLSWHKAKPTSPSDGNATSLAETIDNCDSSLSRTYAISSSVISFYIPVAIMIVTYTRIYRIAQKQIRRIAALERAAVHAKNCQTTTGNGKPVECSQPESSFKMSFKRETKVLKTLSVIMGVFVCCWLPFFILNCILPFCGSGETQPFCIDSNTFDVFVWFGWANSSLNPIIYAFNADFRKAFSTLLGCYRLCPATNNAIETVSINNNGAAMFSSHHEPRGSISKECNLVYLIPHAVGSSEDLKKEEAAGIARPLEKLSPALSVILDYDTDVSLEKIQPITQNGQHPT

SMILES: CN1CCc2cc(Cl)c(O)cc2[C@@H](c2ccccc2)C1 [SCH23390]
- affinity for the [3H]SCH23390 binding site, DA D1 receptor (human DA D1 receptor): high affinity

SMILES: CCCC(C(=O)c1ccc2ccccc2c1)N1CCCC1 (stereo not drawn) [Naphyrone, naphthylpyrovalerone]
- h5-HT2C Inhibition of 5-HT-stimulated IP-1 formation % maximum inhibition ± sem (h5-HT2C receptor [1]): 32 ± 14%
- ratio of binding Ki to uptake IC50, hNET (hNET [2]): less than six
- IC50 (hNET [2]; read-out: Inhibition of [3H]neurotransmitter uptake IC50 ± sem, hNET [3H]NE): 0.035 µM
- releasing efficacy, hNET [3H]NE (hNET [3]; concentrations ranging from 10 nM to 100 µM): minimal releasing efficacy
- EC50 (hNET [3]; read-out: Drug-induced release of [3H]neurotransmitter EC50 ± sem, hNET [3H]NE, superfusion, AUC): > 100 µM
- % maximum release ± sem, hNET [3H]NE (hNET [3]; relative to maximal AUC induced by METH (0.3 or 1 µM)): 36 ± 18%
- Ki (hDAT [4]): 0.0108 ± 0.00076 µM
- Ki (h5-HT2A receptor [5]): 17.7 ± 2.6 µM
- Ki (hSigma1 receptor): 0.509 ± 0.052 µM
- Ki (h5-HT2C receptor [6]): 23.2 µM
- Ki (h5-HT1A receptor [7]): 4.64 ± 0.6 µM
- ratio of binding Ki to uptake IC50, hSERT (hSERT [8]; [125I]RTI-55 Ki / [3H]5-HT uptake IC50): less than six
- IC50 (hSERT [8]; read-out: Inhibition of [3H]neurotransmitter uptake IC50 ± sem, hSERT [3H]5-HT, 20 nM [3H]5-HT, intact cells): 0.0593 ± 0.0097 µM
- EC50 (hVMAT2 [9]; read-out: Drug-induced release of [3H]NE EC50 ± sem, hVMAT2, superfusion): > 100 µM
- Release of [3H]NE % maximum release ± sem or range, hVMAT2 (hVMAT2 [9]): 34 ± 14%
- Release of [3H]NE % maximum release ± sem or range, hVMAT2 (hVMAT2 [9]; listed as naphyrone): less than 35%
- Ki (hVMAT2 [10]): 119 ± 20 µM
- h5-HT1A Stimulation of [35S]GTPγS binding % maximum stimulation ± sem (h5-HT1A receptor [11]; normalized to the maximal stimulation by 5-HT): 80 ± 15%
- EC50 (h5-HT1A receptor [11]; read-out: h5-HT1A Stimulation of [35S]GTPγS binding EC50 ± sem): 116 ± 30 µM
- IC50 (hVMAT2 [12]): 21.4 ± 7.1 µM
- h5-HT2A Inhibition of 5-HT-stimulated IP-1 formation % maximum inhibition ± sem (h5-HT2A receptor [13]; normalized to maximal inhibition by ketanserin (10 µM)): 98.18 ± 0.94%
- IC50 (h5-HT2A receptor [13]; read-out: h5-HT2A Inhibition of 5-HT-stimulated IP-1 formation IC50 ± sem): 65 ± 11 µM
- Ki (hNET [14]): 0.059 µM
- ratio of binding Ki to uptake IC50, hDAT (hDAT [15]; [125I]RTI-55 Ki / [3H]DA uptake IC50): less than six
- fold less potent at other target proteins than at biogenic amine transporters (hDAT [15]; other target proteins vs biogenic amine transporters): 60–350 fold
- IC50 (hDAT [15]; read-out: Inhibition of [3H]neurotransmitter uptake IC50 ± sem, hDAT [3H]DA, 20 nM [3H]DA, intact cells): 0.0126 ± 0.0031 µM
- % maximum release ± sem, hSERT [3H]5-HT (hSERT [16]): 20.1 ± 9.3%
- releasing efficacy, hSERT [3H]5-HT (hSERT [16]; [18]): minimal releasing efficacy
- EC50 (hSERT [16]; read-out: Drug-induced release of [3H]neurotransmitter EC50 ± sem, hSERT [3H]5-HT, superfusion, AUC): 7.5 ± 3 µM
- releasing efficacy, hDAT [3H]DA (hDAT [17]; [18]): minimal releasing efficacy
- EC50 (hDAT [17]; read-out: Drug-induced release of [3H]neurotransmitter EC50 ± sem, hDAT [3H]DA, superfusion, AUC): > 100 µM
- % maximum release ± sem, hDAT [3H]DA (hDAT [17]; relative to maximal AUC induced by METH (1 or 10 µM)): < 6%
